Results taken from PMC10209615, “Pharmacological inhibition of LSD1 suppresses growth of hepatocellular carcinoma by inducing GADD45B” (MedComm, 2023).

Columns and labels:
[1] = tested on: Hep3B; test: EdU incorporation assay; conditions: 96 h
Protocol: (§5) EdU assay was utilized to detect proliferating cells. […] EdU‐positive cells were detected by employing high‐throughput screening (HTS; Thermo Fisher), and the EdU incorporation rate was calculated.

[2] = tested on: LSD1 knockout JHH7 cells; test: Proliferation of LSD1 knockout JHH7 cells after ZY0511; type: cell-based, human; conditions: ZY0511 treatment for 96 h
Protocol: Cell viability was determined using Cell Counting Kit‐8 (CCK8; Dojindo) or 3‐(4, 5‐dimethylthiazol‐2‐yl)‐2,5‐diphenyltetrazoliumbromide (MTT, Sigma Aldrich) assay. […] Consequently, cell viability was determined using a microplate reader (Thermo Fisher) at 450 nm for CCK8 assay, or 570 nm for MTT assay, at different time points. The IC50 values and CI values were analyzed and calculated using GraphPad Prism 8 and CompuSyn (version 1.0; http://www.combosyn.com), respectively.

[3] = tested on: Hep3B; test: Apoptosis analysis (Annexin V, flow cytometry); type: cell-based, human; conditions: 48 h
Protocol: (§1) Cells were fixed using 70% ethanol and stained with a Cell Cycle Detection Kit (KeyGEN). For apoptosis analysis, cells were exposed to ZY0511 alone or in combination with DTP3 for 48 h. Cells were harvested and stained with PE Annexin V Apoptosis Detection Kit (BD). The cell cycle or apoptosis induction was detected by using a flow cytometer (Agilent NovoCyte). Results were assessed by NovoExpress software (Agilent NovoCyte).

[4] = tested on: HepG2; test: Apoptosis analysis (Annexin V, flow cytometry); type: cell-based, human; conditions: HepG2, 48 h
Protocol: as §1

[5] = tested on: PLC/PRF/5; test: EdU incorporation assay; conditions: PLC/PRF/5, 96 h
Protocol: as §5

[6] = tested on: HepG2 xenograft; test: Cell‐derived xenograft (CDX) model; type: in vivo, nude mice; conditions: 100 mg/kg i.p., 18 days
Protocol: (§2) For CDX models, HCC cells (HepG2, Hep3B) were harvested, and cells suspension (5 × 10^6 − 1 × 10^7 cells per mouse) were subcutaneously injected into the hind flank region of nude mice. For PDX models, fresh HCC tissues obtained from West China Hospital were minced into 2–5 mm^3 sizes to build the PDX models. The HCC tissue fragments were transplanted into the hind flank region of NOD/SCID mice within 2 h. Once the tumor volume reached ∼2 cm^3, the PDX models were expanded.
(§3) When the tumor volume reached approximately 100 mm^3, CDX & PDX tumor‐bearing mice were randomly divided into groups: (1) blank solvent; (2) ZY0511 50 mg/kg per day, i.p.; (3) ZY0511 100 mg/kg per day, i.p.; and (4) combinatorial treatment of ZY0511 50 mg/kg with DTP3 30 mg/kg, per day, i.p. Tumor sizes and animal body weights were monitored every 3 days, and tumor volumes were calculated as 0.5 × length × width^2. TGI rate was calculated as (1 − tumor volume of treated group/tumor volume of control group) x 100%.

[7] = tested on: Hep3B xenograft; test: Cell‐derived xenograft (CDX) model; type: in vivo, nude mice; conditions: 100 mg/kg i.p., 18 days
Protocol: as §2, §3

[8] = tested on: 104 cancer‐related kinases; test: Kinase activity detection (Eurofins), whole panel; type: biochemical; conditions: ZY0511 1 μM
Protocol: (§4) The activity of ZY0511 against 104 cancer‐related kinases was carried out by Eurofins Pharma Discovery Services (Celle Lévescault, France).

[9] = Body weight of tumor‐bearing mice (HepG2, Hep3B, PDX1, PDX2); type: in vivo; conditions: CDX and PDX models, compared with control
Protocol: as §3

[10] = target: T1, PAK4 (Homo sapiens, UniProt O96013); test: Kinase activity detection (Eurofins); type: biochemical; conditions: ZY0511 1 µM, read-out: Inhibition rate
T1 construct: purchased Eurofins Pharma Discovery Services (KinaseProfiler)
Protocol: as §4

[11] = target: T2, Tie2 (Homo sapiens, UniProt Q02763); test: Kinase activity detection (Eurofins); type: biochemical; conditions: ZY0511 1 µM, read-out: Inhibition rate
T2 construct: purchased Eurofins Pharma Discovery Services (KinaseProfiler)
T2 sequence (Q02763 23-1124): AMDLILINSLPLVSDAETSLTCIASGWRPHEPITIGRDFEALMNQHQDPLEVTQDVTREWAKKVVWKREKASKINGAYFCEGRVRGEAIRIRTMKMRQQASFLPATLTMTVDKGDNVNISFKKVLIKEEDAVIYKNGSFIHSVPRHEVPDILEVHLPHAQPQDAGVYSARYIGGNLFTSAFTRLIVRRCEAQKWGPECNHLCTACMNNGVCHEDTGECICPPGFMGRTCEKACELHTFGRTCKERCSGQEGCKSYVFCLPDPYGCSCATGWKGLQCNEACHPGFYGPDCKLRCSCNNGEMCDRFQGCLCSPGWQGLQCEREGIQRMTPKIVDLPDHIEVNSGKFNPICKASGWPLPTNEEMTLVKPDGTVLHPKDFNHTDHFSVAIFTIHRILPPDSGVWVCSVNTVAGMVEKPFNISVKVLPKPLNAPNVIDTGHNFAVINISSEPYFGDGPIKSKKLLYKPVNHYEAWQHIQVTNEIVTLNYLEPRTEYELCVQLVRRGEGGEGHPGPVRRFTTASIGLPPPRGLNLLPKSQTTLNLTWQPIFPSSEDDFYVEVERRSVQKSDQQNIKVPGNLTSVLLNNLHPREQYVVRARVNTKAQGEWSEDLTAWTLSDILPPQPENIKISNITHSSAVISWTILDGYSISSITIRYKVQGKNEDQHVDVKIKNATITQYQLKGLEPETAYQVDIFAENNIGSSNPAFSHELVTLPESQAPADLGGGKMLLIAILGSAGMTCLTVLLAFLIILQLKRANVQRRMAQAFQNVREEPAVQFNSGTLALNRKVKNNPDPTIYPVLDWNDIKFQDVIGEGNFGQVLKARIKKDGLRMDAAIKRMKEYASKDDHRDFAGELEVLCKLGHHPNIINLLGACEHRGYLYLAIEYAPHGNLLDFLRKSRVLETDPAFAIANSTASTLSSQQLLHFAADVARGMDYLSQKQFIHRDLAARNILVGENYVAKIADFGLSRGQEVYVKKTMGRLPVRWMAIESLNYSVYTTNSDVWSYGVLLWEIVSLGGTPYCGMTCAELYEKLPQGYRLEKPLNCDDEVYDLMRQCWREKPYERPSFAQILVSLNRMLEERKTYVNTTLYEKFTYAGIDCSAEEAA
Protocol: as §4

[12] = target: T3, DNA-PK (Homo sapiens, UniProt P78527); test: Kinase activity detection (Eurofins); type: biochemical
T3 construct: purchased Eurofins Pharma Discovery Services
Protocol: as §4

[13] = target: T4, DCAMKL3 (Homo sapiens, UniProt Q9C098); test: Kinase activity detection (Eurofins); type: biochemical; conditions: ZY0511 1 µM, read-out: Inhibition rate
T4 construct: purchased Eurofins Pharma Discovery Services
T4 sequence (Q9C098 whole entry, species assumed): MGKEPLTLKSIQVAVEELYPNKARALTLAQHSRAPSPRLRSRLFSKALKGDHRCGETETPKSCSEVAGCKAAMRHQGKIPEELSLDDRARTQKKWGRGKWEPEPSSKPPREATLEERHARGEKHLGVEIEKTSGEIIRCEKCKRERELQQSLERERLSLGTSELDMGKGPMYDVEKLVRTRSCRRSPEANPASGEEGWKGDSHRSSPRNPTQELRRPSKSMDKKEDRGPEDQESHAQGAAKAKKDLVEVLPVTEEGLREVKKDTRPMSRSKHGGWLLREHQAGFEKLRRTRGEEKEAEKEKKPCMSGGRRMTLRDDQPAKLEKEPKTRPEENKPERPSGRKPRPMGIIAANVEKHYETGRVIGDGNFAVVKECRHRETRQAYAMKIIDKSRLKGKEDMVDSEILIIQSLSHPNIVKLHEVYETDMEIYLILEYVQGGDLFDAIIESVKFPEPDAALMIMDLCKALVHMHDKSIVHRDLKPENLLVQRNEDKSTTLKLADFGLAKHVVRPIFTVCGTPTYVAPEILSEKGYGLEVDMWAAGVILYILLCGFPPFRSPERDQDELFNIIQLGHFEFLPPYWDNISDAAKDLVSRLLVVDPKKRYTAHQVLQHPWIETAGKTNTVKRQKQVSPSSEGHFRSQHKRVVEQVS
Protocol: as §4

[14] = target: T5, PI3 Kinase (p110α/p85α) (Homo sapiens, UniProt P42336); test: Kinase activity detection (Eurofins); type: biochemical; conditions: ZY0511 1 µM, read-out: Inhibition rate
T5 construct: purchased Eurofins Pharma Discovery Services (KinaseProfiler)
Protocol: as §4

[15] = target: T6, DYRK2 (Homo sapiens, UniProt Q92630); test: Kinase activity detection (Eurofins); type: biochemical; conditions: ZY0511 1 µM, read-out: Inhibition rate
T6 construct: purchased Eurofins Pharma Discovery Services (KinaseProfiler)
Protocol: as §4

[16] = target: T7, Aurora-A (Homo sapiens, UniProt O14965); test: Kinase activity detection (Eurofins); type: biochemical; conditions: ZY0511 1 µM, read-out: Inhibition rate
T7 construct: purchased Eurofins Pharma Discovery Services (KinaseProfiler)
Protocol: as §4

[17] = target: T8, ALK (Homo sapiens, UniProt Q9UM73); test: Kinase activity detection (Eurofins); type: biochemical; conditions: ZY0511 1 µM, read-out: Activation rate
T8 construct: purchased Eurofins Pharma Discovery Services (KinaseProfiler)
T8 sequence (Q9UM73 19-1620): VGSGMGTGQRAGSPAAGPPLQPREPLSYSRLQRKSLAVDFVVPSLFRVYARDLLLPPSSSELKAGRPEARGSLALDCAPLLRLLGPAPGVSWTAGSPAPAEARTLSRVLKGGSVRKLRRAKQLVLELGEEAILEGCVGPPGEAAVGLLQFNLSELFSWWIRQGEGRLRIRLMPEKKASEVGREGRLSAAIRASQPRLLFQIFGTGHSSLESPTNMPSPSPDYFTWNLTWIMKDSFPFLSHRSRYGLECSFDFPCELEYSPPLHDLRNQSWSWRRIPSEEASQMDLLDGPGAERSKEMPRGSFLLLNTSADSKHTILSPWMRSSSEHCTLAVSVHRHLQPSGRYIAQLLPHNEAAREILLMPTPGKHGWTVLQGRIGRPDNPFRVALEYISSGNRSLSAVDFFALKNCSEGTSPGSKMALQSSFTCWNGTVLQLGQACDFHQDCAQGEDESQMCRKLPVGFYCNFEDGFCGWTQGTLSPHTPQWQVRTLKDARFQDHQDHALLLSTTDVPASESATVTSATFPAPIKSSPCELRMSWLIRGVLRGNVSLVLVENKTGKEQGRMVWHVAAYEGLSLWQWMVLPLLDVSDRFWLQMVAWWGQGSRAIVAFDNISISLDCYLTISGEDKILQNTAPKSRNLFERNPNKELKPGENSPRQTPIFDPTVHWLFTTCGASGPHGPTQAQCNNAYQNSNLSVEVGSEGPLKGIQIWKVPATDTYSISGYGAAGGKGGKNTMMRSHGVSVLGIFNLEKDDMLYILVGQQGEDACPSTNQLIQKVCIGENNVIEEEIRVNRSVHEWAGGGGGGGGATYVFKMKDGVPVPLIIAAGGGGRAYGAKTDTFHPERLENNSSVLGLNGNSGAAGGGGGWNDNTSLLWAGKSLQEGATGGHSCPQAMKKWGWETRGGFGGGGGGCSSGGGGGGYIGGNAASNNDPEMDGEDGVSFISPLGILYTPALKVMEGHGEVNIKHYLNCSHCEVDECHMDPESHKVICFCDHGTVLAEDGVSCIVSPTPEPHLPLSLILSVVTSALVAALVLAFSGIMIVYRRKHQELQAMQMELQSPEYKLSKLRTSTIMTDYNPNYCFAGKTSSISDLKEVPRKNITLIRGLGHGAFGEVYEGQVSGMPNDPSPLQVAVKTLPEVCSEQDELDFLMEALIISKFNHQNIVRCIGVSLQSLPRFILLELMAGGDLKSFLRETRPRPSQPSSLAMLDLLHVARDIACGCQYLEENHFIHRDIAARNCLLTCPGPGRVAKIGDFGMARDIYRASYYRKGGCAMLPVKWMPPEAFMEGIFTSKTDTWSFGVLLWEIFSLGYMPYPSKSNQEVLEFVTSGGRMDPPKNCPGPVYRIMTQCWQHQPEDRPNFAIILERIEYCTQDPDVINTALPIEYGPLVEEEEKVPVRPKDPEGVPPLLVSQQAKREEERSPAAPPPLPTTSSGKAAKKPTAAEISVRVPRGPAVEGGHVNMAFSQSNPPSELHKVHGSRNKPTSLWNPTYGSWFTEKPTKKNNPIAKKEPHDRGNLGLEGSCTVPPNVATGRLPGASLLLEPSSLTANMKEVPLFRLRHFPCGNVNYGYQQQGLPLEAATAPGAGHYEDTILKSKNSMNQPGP
Protocol: as §4

[18] = target: T9, CHK1 (Homo sapiens, UniProt O14757); test: Kinase activity detection (Eurofins); type: biochemical; conditions: ZY0511 1 µM
T9 construct: purchased Eurofins Pharma Discovery Services (KinaseProfiler)
Protocol: as §4

[19] = target: T10, EphA7 (Rattus norvegicus, UniProt P54759); test: Kinase activity detection (Eurofins); type: biochemical; conditions: ZY0511 1 µM, read-out: Inhibition rate
T10 construct: purchased Eurofins Pharma Discovery Services
Protocol: as §4

[20] = target: T11, p70S6K (Homo sapiens, UniProt P23443); test: Kinase activity detection (Eurofins); type: biochemical; conditions: ZY0511 1 µM, read-out: Inhibition rate
T11 construct: purchased Eurofins Pharma Discovery Services
Protocol: as §4

[21] = target: T12, CSK (Homo sapiens, UniProt P41240); test: Kinase activity detection (Eurofins); type: biochemical; conditions: ZY0511 1 µM, read-out: Inhibition rate
T12 construct: purchased Eurofins Pharma Discovery Services (KinaseProfiler)
Protocol: as §4

[22] = target: T13, EphA2 (Homo sapiens, UniProt P29317); test: Kinase activity detection (Eurofins); type: biochemical; conditions: ZY0511 1 µM, read-out: Activation rate
T13 construct: purchased Eurofins Pharma Discovery Services (KinaseProfiler)
T13 sequence (P29317 24-976): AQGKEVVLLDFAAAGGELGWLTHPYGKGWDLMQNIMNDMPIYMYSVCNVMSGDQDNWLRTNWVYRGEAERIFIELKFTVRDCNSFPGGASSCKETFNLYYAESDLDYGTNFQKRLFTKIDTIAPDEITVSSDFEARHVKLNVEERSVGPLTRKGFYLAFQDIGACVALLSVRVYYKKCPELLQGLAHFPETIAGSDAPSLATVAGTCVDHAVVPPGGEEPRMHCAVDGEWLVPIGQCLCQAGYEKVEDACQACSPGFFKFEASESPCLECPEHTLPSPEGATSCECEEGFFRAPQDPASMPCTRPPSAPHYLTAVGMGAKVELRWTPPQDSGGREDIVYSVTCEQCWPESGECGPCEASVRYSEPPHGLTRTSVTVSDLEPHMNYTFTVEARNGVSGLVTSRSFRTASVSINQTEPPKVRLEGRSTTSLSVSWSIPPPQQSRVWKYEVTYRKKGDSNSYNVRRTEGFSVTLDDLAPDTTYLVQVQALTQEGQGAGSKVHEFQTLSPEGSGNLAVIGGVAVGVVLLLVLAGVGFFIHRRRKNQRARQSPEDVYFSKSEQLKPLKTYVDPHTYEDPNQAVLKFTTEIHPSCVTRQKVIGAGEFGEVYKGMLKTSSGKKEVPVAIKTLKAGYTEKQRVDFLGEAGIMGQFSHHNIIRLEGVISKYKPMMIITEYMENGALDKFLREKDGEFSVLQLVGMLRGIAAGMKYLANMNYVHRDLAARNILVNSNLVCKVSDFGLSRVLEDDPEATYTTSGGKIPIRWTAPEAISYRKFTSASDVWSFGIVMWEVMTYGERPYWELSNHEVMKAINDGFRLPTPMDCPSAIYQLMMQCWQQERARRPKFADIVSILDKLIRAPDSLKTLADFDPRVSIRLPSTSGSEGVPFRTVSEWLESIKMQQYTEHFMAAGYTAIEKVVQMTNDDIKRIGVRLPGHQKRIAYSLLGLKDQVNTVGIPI
Protocol: as §4

[23] = target: T14, CK1γ2 (Homo sapiens, UniProt P78368); test: Kinase activity detection (Eurofins); type: biochemical; conditions: ZY0511 1 µM, read-out: Inhibition rate
T14 construct: purchased Eurofins Pharma Discovery Services
T14 sequence (P78368 whole entry): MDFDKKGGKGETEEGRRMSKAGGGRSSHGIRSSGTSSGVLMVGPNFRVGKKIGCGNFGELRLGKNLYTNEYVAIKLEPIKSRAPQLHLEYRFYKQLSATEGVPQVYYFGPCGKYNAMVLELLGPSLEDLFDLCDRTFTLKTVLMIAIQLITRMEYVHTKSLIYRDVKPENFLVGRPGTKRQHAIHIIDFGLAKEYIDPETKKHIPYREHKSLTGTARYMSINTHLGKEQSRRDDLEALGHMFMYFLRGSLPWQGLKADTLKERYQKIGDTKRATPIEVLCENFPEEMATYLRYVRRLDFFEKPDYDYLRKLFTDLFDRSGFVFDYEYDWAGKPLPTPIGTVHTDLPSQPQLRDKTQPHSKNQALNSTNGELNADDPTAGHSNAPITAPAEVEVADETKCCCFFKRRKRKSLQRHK
Protocol: as §4

[24] = tested on: PDX3 tumors; test: Third PDX model (PDX3), ZY0511 and DTP3; type: in vivo, NOD/SCID mice
Protocol: as §2, §3
Both procedures were carried out as previously described.[21] In brief, samples were fixated in 4% paraformaldehyde and consequently paraffin‐coated. Thin tissue segments (4 μm) were prepared, and H&E staining was performed. […]

O=C(N/N=C1\CCc2c(Cl)ccc(O)c21)c1cccc(S(=O)(=O)N2CCOCC2)c1 [ZY0511, (E)‐N'‐(2, 3‐dihydro‐1H‐inden‐1‐ylidene) benzohydrazides]
inhibition rate of EdU‐positive cells [1]: 99.9%
decrease of sensitivity of JHH7 cells to ZY0511 by LSD1 knockout [2]: 20%
apoptotic rate [3]: 6.98%
apoptotic rate [4]: 6.49%
inhibition rate of EdU‐positive cells [5]: 9.2%
tumor growth inhibition (TGI) [6]: 58.29%
tumor growth inhibition (TGI) [7]: 52.70%
effect against other kinases, including FGFR, VEGFR, and PDGFR [8]: no effect
body weight of mice [9]: did not change
inhibition at 1 µM [10]: 20%
inhibition at 1 µM [11]: 50%
inhibition at 1 µM ([12]; DNA-PK, ZY0511 1 µM, read-out: Inhibition rate): 60%
IC50 ([12]; DNA‐PK): > 10 µM
inhibition at 1 µM [13]: 3%
inhibition at 1 µM [14]: 6%
inhibition at 1 µM [15]: 5%
inhibition at 1 µM [16]: 17%
activation at 1 µM [17]: 23%
Activation rate [18]: 1%
inhibition at 1 µM [19]: 2%
inhibition at 1 µM [20]: 11%
inhibition at 1 µM [21]: 4%
activation at 1 µM [22]: 5%
inhibition at 1 µM [23]: 13%
TGI ([24]; PDX3, ZY0511 50 mg/kg i.p., 15 days): 32.79%
mice body weight ([24]; PDX3, ZY0511 and/or DTP3, 15 days): no change
